In patent publication US11414429B2, “Compound or pharmaceutically acceptable salt thereof” (RIKEN, priority 2016, dated 2022):
pIC50: −log10 of the molar value. Like-named read-outs stand apart in the source and are kept apart here.

What was measured:
[1] = test system: human colorectal cancer cell line, COLO-320DM; assay: Cell proliferation inhibitory activity test (Celltiter-Glo Luminescent Cell Viability Assay); format: cell-based; settings: COLO-320DM cells, 96 hours
In short: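 GI50 is taken as the concentration halving cell growth versus 1% DMSO control, measured by ATP luminescence. Compound exposure lasted 96 h at 37° C. under 5% CO2, after overnight seeding in RPMI-1640 with 10% FBS and 2 mM glutamine.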

tankyrase 1 (TNKS 1) = target: T1, tankyrase 1 (TNKS 1) (Homo sapiens, UniProt O95271); assay: Tankyrase inhibitory activity test (ELISA, self-polyADP ribosylation), tankyrase 1; format: biochemical; settings: self-polyADP ribosylation
T1 construct: 1,024-1,327aa; made in house; host or cells: cell-free protein synthesis system
T1 sequence (O95271 1024-1327): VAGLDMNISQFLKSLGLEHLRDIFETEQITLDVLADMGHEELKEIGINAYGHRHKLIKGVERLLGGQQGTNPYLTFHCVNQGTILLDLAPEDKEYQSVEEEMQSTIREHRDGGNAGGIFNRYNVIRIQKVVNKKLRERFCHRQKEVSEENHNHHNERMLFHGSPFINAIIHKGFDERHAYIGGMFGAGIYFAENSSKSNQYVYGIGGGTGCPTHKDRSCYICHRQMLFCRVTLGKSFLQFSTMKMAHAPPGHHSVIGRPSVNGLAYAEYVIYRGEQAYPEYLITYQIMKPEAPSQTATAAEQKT
In short: (§1)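 IC50 was fitted to residual self-polyADP-ribosylation activity, detected by HRP-streptavidin chemiluminescence. Plate-bound Flag fusions (TNKS1 1,024-1,327aa SAM+PARP; TNKS2 613-1,116aa ANK5+SAM+PARP, cell-free synthesized) saw compound for 10 min at room temperature in 50 mM Tris-HCl pH 8.0, 4 mM MgCl2, 0.2 mM DTT. Reaction with 225 μM NAD/25 μM 6-biotin-17-NAD solution ran 45 min at 30 °C.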

tankyrase 2 (TNKS 2) = target: T2, tankyrase 2 (TNKS 2) (Homo sapiens, UniProt Q9H2K2); assay: Tankyrase inhibitory activity test (ELISA, self-polyADP ribosylation), tankyrase 2; format: biochemical; settings: self-polyADP ribosylation
T2 construct: 613-1, 116aa; made in house; host or cells: cell-free protein synthesis system
T2 sequence (Q9H2K2 613-1166): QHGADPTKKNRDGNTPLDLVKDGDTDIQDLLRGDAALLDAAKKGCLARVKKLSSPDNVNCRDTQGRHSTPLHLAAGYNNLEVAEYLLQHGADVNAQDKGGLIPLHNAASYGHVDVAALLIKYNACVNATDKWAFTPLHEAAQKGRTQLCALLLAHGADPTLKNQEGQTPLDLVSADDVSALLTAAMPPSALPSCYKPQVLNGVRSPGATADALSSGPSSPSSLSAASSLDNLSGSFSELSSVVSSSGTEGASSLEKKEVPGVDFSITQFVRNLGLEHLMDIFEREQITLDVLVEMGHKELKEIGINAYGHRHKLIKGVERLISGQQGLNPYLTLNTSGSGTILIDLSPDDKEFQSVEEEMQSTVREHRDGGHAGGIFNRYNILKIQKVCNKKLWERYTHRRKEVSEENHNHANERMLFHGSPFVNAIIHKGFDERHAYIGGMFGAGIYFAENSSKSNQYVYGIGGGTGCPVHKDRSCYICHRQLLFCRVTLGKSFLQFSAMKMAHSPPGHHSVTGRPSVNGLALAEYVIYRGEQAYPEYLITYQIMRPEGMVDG
In short: as §1

[2] = read-out: COLO-320 DM cell proliferation inhibitory activity (GI50 class)
[3] = tankyrase 1, ELISA, read-out: TNKS1 inhibitory activity (IC50 class)
[4] = tankyrase 2, ELISA, read-out: TNKS2 inhibitory activity (IC50 class)
[5] = class symbols, read-out: COLO-320 DM (cell proliferation inhibitory activity, GI50 value)
[6] = ELISA, class symbols, read-out: TNKS1 (inhibitory activity against tankyrase 1, IC50 value)
[7] = ELISA, class symbols, read-out: TNKS2 (inhibitory activity against tankyrase 2, IC50 value)

[2H]C([2H])([2H])N1CCCc2c1nc(N1CCC3(CC1)C(=O)N(CCO)c1cc(F)cc(F)c13)[nH]c2=O [Example 370, 4,6-difluoro-1-(2-hydroxyethyl)-1′-[8-(methyl-d3)-4-oxo-3,4,5,6,7,8-hexahydro-pyrido [2,3-d]pyrimidin-2-yl] spiro[in-doline-3,4′-piperidin]-2-one]
GI50 [1, 2]: 100 to 600 nM
pIC50 (tankyrase 1 (TNKS 1); [3]): > 7.70
pIC50 (tankyrase 2 (TNKS 2); [4]): > 7.70

COc1cc(F)c2c(c1)N(C)C(=O)C21CCN(c2nc3c(c(=O)[nH]2)CCCN3C)CC1 [Example 372, 4-fluoro-6-methoxy-1-methyl-1′-(8-methyl-4-oxo-3,4,5,6,7,8-hexahydropyrido [2,3-d]pyrimidin-2-yl) spiro[indoline-3,4'-piperidin]-2-one]
GI50 [1, 2]: 100 to 600 nM
pIC50 (tankyrase 1 (TNKS 1); [3]): > 7.70
pIC50 (tankyrase 2 (TNKS 2); [4]): > 7.70

COc1cc(F)c2c(c1)N(CCO)C(=O)C21CCN(c2nc3c(c(=O)[nH]2)CCCN3C)CC1 [Example 373, 4-fluoro-1-(2-hydroxy-ethyl)-6-methoxy-1′-(8-methyl-4-oxo-3,4,5,6,7,8-hexahydropyrido [2,3-d]pyrimidin-2-yl) spiro[indoline-3,4′-piperidin]-2-one]
GI50 [1, 2]: < 100 nM
pIC50 (tankyrase 1 (TNKS 1); [3]): > 7.70
pIC50 (tankyrase 2 (TNKS 2); [4]): > 7.70

CN1CCCc2c1nc(N1CCC3(CC1)C(=O)N(CC#N)c1cc(F)cc(F)c13)[nH]c2=O [Example 374, 2-(4,6-difluoro-1′-(8-methyl-4-oxo-3,4,5,6,7,8-hexahydropyrido [2,3-d]pyrimidin-2-yl)-2-oxospiro[indoline-3,4′-piperidin]-1-yl)acetonitrile]
GI50 [1, 2]: < 100 nM
pIC50 (tankyrase 1 (TNKS 1); [3]): > 7.70
pIC50 (tankyrase 2 (TNKS 2); [4]): > 7.70

CN(C)CCOc1cc(Cl)c2c(c1)N(C)C(=O)C21CCN(c2nc3c(c(=O)[nH]2)CCCN3C)CC1 [Example 375, 4-chloro-6-[2-(dimethylamino)ethoxy]-1-methyl-1′-(8-methyl-4-oxo-3,4,5,6,7,8-hexahydro-pyrido[2,3-d]pyrimidin-2-yl) spiro[indoline-3,4′-piperidin]-2-one]
GI50 [1, 2]: 100 to 600 nM
pIC50 (tankyrase 1 (TNKS 1); [3]): > 7.70
pIC50 (tankyrase 2 (TNKS 2); [4]): > 7.70

CN1CCCc2c1nc(N1CCC3(CC1)C(=O)N(C)c1cc(OCCN4CCCCC4)cc(Cl)c13)[nH]c2=O [Example 376, 4-chloro-1-methyl-1′-(8-methyl-4-oxo-3,4,5,6,7,8-hexahydropy-rido[2,3-d]pyrimidin-2-yl)-6-(2-(piperidin-1-yl)ethoxy)spiro [indoline-3,4′-piperidin]-2-one]
GI50 [1, 2]: 100 to 600 nM
pIC50 (tankyrase 1 (TNKS 1); [3]): > 7.70
pIC50 (tankyrase 2 (TNKS 2); [4]): > 7.70

CN1CCCc2c1nc(N1CCC3(CC1)C(=O)N(C)c1cc(OCCN4CCOCC4)cc(Cl)c13)[nH]c2=O [Example 377, 4-chloro-1-methyl-1′-(8-methyl-4-oxo-3,4,5,6,7,8-hexahydropy-rido[2,3-d]pyrimidin-2-yl)-6-(2-morpholino-ethoxy) spiro[indoline-3,4′-piperidin]-2-one]
GI50 [1, 2]: 100 to 600 nM
pIC50 (tankyrase 1 (TNKS 1); [3]): > 7.70
pIC50 (tankyrase 2 (TNKS 2); [4]): > 7.70

CN1CCCc2c1nc(N1CCC3(CC1)C(=O)N(C)c1cc(OCCN4CCS(=O)(=O)CC4)cc(Cl)c13)[nH]c2=O [Example 378, 4-chloro-6-[2-(1,1-dioxi-dothio-morpholino)ethoxy]-1-methyl-1′-(8-methyl-4-oxo-3,4,5,6,7,8-hexahydropyrido [2,3-d]pyrimidin-2-yl)spiro [indoline-3,4′-piperidin]-2-one]
GI50 [1, 2]: 600 to 1000 nM
pIC50 (tankyrase 1 (TNKS 1); [3]): > 7.70
pIC50 (tankyrase 2 (TNKS 2); [4]): > 7.70

COc1cc(F)c2c(c1)N(CC#N)C(=O)C21CCN(c2nc3c(c(=O)[nH]2)CCCN3C)CC1 [Example 379, 2-[4-fluoro-6-methoxy-1′-(8-methyl-4-oxo-3,4,5,6,7,8-hexahydropyrido [2,3-d]pyrimidin-2-yl)-2-oxospiro [indoline-3,4′-piperidin]-1-yl] acetonitrile]
GI50 [1, 2]: < 100 nM
pIC50 (tankyrase 1 (TNKS 1); [3]): > 7.70
pIC50 (tankyrase 2 (TNKS 2); [4]): > 7.70

CN1CCC(Oc2cc(F)c3c(c2)N(C)C(=O)C32CCN(c3nc4c(c(=O)[nH]3)CCCN4C)CC2)CC1 [Example 380, 4-fluoro-1-methyl-1′-(8-methyl-4-oxo-3,4,5,6,7,8-hexahydropyrido [2,3-d]pyrimidin-2-yl)-6-[(1-methylpiperidin-4-yl)oxy]spiro [indoline-3,4′-piperidin]-2-one]
GI50 [1, 2]: 600 to 1000 nM
pIC50 (tankyrase 1 (TNKS 1); [3]): > 7.70
pIC50 (tankyrase 2 (TNKS 2); [4]): > 7.70

CN1CCCc2c1nc(N1CCC3(CC1)C(=O)N(CCO)c1cc(OCCO)cc(F)c13)[nH]c2=O [Example 381, 4-fluoro-6-(2-hydroxy-thoxy)-1-(2-hydroxyethyl)-1′-(8-methyl-4-oxo-3,4,5,6,7,8-hexahydropyrido [2,3-d]pyrimidin-2-yl)spiro [indoline-3,4′-piperidin]-2-one]
GI50 [1, 2]: 100 to 600 nM
pIC50 (tankyrase 1 (TNKS 1); [3]): > 7.70
pIC50 (tankyrase 2 (TNKS 2); [4]): > 7.70

CCN1CCCc2c1nc(N1CCC3(CC1)C(=O)N(CCO)c1cc(F)cc(F)c13)[nH]c2=O [Example 382, 1′-(8-ethyl-4-oxo-3,4,5,6,7-hexahydropyrido-[2,3-d]pyrimidin-2-yl)-4,6-difluoro-1-(2-hy-droxyethyl)spiro [indoline-3,4′-piperidin]-2-one]
GI50 [1, 2]: 100 to 600 nM
pIC50 (tankyrase 1 (TNKS 1); [3]): > 7.70
pIC50 (tankyrase 2 (TNKS 2); [4]): > 7.70

COCCOc1cc(F)c2c(c1)N(CCO)C(=O)C21CCN(c2nc3c(c(=O)[nH]2)CCCN3C)CC1 [Example 383, 4-fluoro-1-(2-hydroxy-ethyl)-6-(2-methoxyethoxy-1′-(8-methyl-4-oxo-3,4,5,6,7,8-hexahydropyrido [2,3-d]pyrimidin-2-yl))spiro [indoline-3,4′-piperidin]-2-one]
GI50 [1, 2]: 100 to 600 nM
pIC50 (tankyrase 1 (TNKS 1); [3]): > 7.70
pIC50 (tankyrase 2 (TNKS 2); [4]): > 7.70

CN1CCCc2c1nc(N1CCC3(CC1)C(=O)N(CCO)c1cc(O)cc(F)c13)[nH]c2=O [Example 384, 4-fluoro-6-hydroxy-1-(2-hydroxyethyl)-1′-(8-methyl-4-oxo-3,4,5,6,7,8-hexahydropyrido [2,3-d]pyrimidin-2-yl) spiro[indoline-3,4′-piperidin]-2-one]
GI50 [1, 2]: 100 to 600 nM
pIC50 (tankyrase 1 (TNKS 1); [3]): > 7.70
pIC50 (tankyrase 2 (TNKS 2); [4]): > 7.70

CN1CCCc2c1nc(N1CCC3(CC1)C(=O)N(CCO)c1cc(OCCN4CCOCC4)cc(F)c13)[nH]c2=O [Example 386, 4-fluoro-1-(2-hydroxy-ethyl)-1′-(8-methyl-4-oxo-3,4,5,6,7,8-hexahydropyrido [2,3-d]pyrimidin-2-yl)-6-(2-morpholino-ethoxy)spiro [indoline-3,4′-piperidin]-2-one]
GI50 [1, 2]: 600 to 1000 nM
pIC50 (tankyrase 1 (TNKS 1); [3]): > 7.70
pIC50 (tankyrase 2 (TNKS 2); [4]): > 7.70

CN1CCN(c2cc(F)c3c(c2)N(C)C(=O)C32CCN(c3nc4c(c(=O)[nH]3)CCCN4C)CC2)CC1 [Example 387, 4-fluoro-1-methyl-1′-(8-methyl-4-oxo-3,4,5,6,7,8-hexahydropyrido [2,3-d]pyrimidin-2-yl)-6-(4-methylpiperazin-1-yl)spiro [indoline-3,4′-piperidin]-2-one]
GI50 [1, 2]: < 100 nM
pIC50 (tankyrase 1 (TNKS 1); [3]): > 7.70
pIC50 (tankyrase 2 (TNKS 2); [4]): > 7.70

CN1CCCc2c1nc(N1CCC3(CC1)C(=O)N(C)c1cc(OCC4COC4)cc(F)c13)[nH]c2=O [Example 388, 4-fluoro-1-methyl-1′-(8-methyl-4-oxo-3,4,5,6,7,8-hexahydropyrido [2,3-d]pyrimidin-2-yl)-6-(oxetan-3-ylmethoxy) spiro[indoline-3,4′-piperidin]-2-one]
GI50 [1, 2]: < 100 nM
pIC50 (tankyrase 1 (TNKS 1); [3]): > 7.70
pIC50 (tankyrase 2 (TNKS 2); [4]): > 7.70

CN1CCCc2c1nc(N1CCC3(CC1)C(=O)N(C)c1cc(OC4CCOCC4)cc(F)c13)[nH]c2=O [Example 389, 4-fluoro-1-methyl-1′-(8-methyl-4-oxo-3,4,5,6,7,8-hexahydropyrido [2,3-d]pyrimidin-2-yl)-6-[(tetrahydro-2H-pyran-4-yl)oxy]spiro [indoline-3,4′-piperidin]-2-one]
GI50 [1, 2]: < 100 nM
pIC50 (tankyrase 1 (TNKS 1); [3]): > 7.70
pIC50 (tankyrase 2 (TNKS 2); [4]): > 7.70

C[C@@H]1CN(c2cc(F)c3c(c2)N(C)C(=O)C32CCN(c3nc4c(c(=O)[nH]3)CCCN4C)CC2)C[C@H](C)N1 [Example 390, 6-(cis-3,5-dimethyl-piperazin-1-yl)-4-fluoro-1-methyl-1′-(8-methyl-4-oxo-3,4,5,6,7,8-hexahydropyrido [2,3-d]pyrimi-din-2-yl) spiro[indoline-3,4′-piperidin]-2(1H)-one]
GI50 [1, 5]: 100 to 600 nM
pIC50 (tankyrase 1 (TNKS 1); [6]): > 7.70
pIC50 (tankyrase 2 (TNKS 2); [7]): > 7.70

CN1CCCc2c1nc(N1CCC3(CC1)C(=O)N(C)c1cc(N4CC5CCC(C4)N5)cc(F)c13)[nH]c2=O [Example 391, 6-(3,8-diazabicyclo [3.2.1]octan-3-yl)-4-fluoro-1-methyl-1′-(8-methyl-4-oxo-3,4,5,6,7,8-hexahydro-pyrido[2,3-d]pyrimidin-2-yl) spiro[indoline-3,4′-piperidin]-2(1H)-one]
GI50 [1, 5]: 600 to 1000 nM
pIC50 (tankyrase 1 (TNKS 1); [6]): > 7.70
pIC50 (tankyrase 2 (TNKS 2); [7]): > 7.70

CN1CCCc2c1nc(N1CCC3(CC1)C(=O)N(C)c1cc(OCC(=O)O)cc(F)c13)[nH]c2=O [Example 392]
GI50 [1, 5]: 100 to 600 nM
pIC50 (tankyrase 1 (TNKS 1); [6]): > 7.70
pIC50 (tankyrase 2 (TNKS 2); [7]): > 7.70
